Patent US20030176351A1, “Peptides and peptide analogues designed from a diabetes-associated autoantigen, and methods for their use in the treatment and prevention of diabetes” (priority 1999, published 2003)
Read-outs that look alike come from different tables or passages of the source.

Legend:
[1] = tested on: T cells from Patient #6211; experiment: γIFN response of serially expanded T cells from Patient #6211 restimulated with GAD65 peptides and autologous APC; type: cell-based, human; conditions: T cells from Patient #6211 expanded in serial culture, autologous APC
Description: 10^5 thawed and irradiated DRB1*0404, DRB1*0405, or control (non-DR4) peripheral blood lymphocytes (PBL) in a volume of 100 μl were added to wells of 96 V-bottom plates containing peptide or medium and allowed to incubate for 2-3 hours at which time 4×10^4 T cells were added for a total volume of 200 μl-250 μl. At 20-24 hours of coculture, supernatants were harvested for cytokine determination and the wells replenished with fresh medium. At 48 hours, wells were radiolabeled with 1 μCi H^3-thymidine and cultured for an additional 18 hr. The plates were harvested on a TomTec Manual Mach III harvester and incorporated thymidine (as cpm) was determined by liquid spectroscopy on a Wallac Microbeta LSC.
Traditional sandwich ELISA were performed to test the supernatants for human γIFN, using matched antibody sets obtained from Endogen. The plates were read at 405 nm on a Microplate reader (Bio-Tek). The concentration of cytokine was estimated from standard curves using linear regression.
T cells from Patient #6211 were expanded in serial culture by restimulation with GAD65 peptides incubated with autologous APC. Specific T cell responses were present for both peptides 553-572 (53 pg/ml γIFN) and 555-567 (51 pg/ml γIFN), but not peptide 569-585 (5 pg/ml γIFN), localizing the minimal epitope to the 555-567 region. T cell clones were derived by expansion of this culture; proliferation, and cytokine response profiles for CD4^+ T cell clones BRI.4-10 and BRI.4-11 are shown in FIGS. 1A and 1B.

T cell clone BRI.4-11 = experiment: prepulse antagonism assay, response to GAD65 555-567, clone BRI.4-11; type: cell-based, human
DR4 molecules = DR4 molecules (Homo sapiens, UniProt P01903+P01911, A100K/A169T/F76Y/I96L/K127E/L162R/M171V/N62H/P40V/Q125Y/R42H/S133A/S149N/S66Y/V115G/V209L/W38E); experiment: standard DR4-peptide fluorescent binding assay
T cell clone BRI.4-10 = experiment: prepulse antagonism assay, response to GAD65 555-567, clone BRI.4-10; type: cell-based, human
DR4 = conditions: Wicker et al, 1996; cited from earlier work

553-572: GAD65 peptide of residues 553-572 (KVNFFRMVISNPAATHQDID; UniProt Q05329 553-572, looked up, fragment)
γIFN, specific T cell response [1]: 53 pg/mL

CSCC[C@H](NC(=O)[C@H](CCCNC(=N)N)NC(=O)[C@H](Cc1ccccc1)NC(=O)[C@H](Cc1ccccc1)NC(=O)[C@@H](N)CC(N)=O)C(=O)N[C@H](C(=O)N[C@@H](CC(C)C)C(=O)N[C@@H](CO)C(=O)N[C@@H](CC(N)=O)C(=O)N1CCC[C@H]1C(=O)N[C@@H](C)C(=O)N[C@@H](C)C(=O)N[C@H](C(=O)O)[C@@H](C)O)C(C)C [561 L]
antagonism of proliferative response (in words) (T cell clone BRI.4-11; clone BRI.4-11, highest concentration tested, APC pre-pulsed with agonist peptide): partially antagonized

CC[C@H](C)[C@H](NC(=O)[C@@H](NC(=O)[C@H](CCSC)NC(=O)[C@H](CCCNC(=N)N)NC(=O)[C@H](Cc1ccccc1)NC(=O)[C@H](Cc1ccccc1)NC(=O)[C@@H](N)CC(N)=O)C(C)C)C(=O)N[C@@H](CO)C(=O)N[C@@H](CC(N)=O)C(=O)N1CCC[C@H]1C(=O)N[C@@H](C)C(=O)N[C@@H](C)C(=O)N[C@H](C(=O)O)[C@@H](C)O [555-567]
γIFN, specific T cell response [1]: 51 pg/mL

VNFFRMVISNPAATHQD [GAD 554-570]
IC50 (DR4 molecules; read-out: peptide binding: concentration of peptide giving 50% inhibition of a standard DR4-peptide fluorescent binding assay): 600 nM

CSCC[C@H](NC(=O)[C@H](CCCNC(=N)N)NC(=O)[C@H](Cc1ccccc1)NC(=O)[C@H](Cc1ccccc1)NC(=O)[C@@H](N)CC(N)=O)C(=O)N[C@H](C(=O)N[C@@H](CCSC)C(=O)N[C@@H](CO)C(=O)N[C@@H](CC(N)=O)C(=O)N1CCC[C@H]1C(=O)N[C@@H](C)C(=O)N[C@@H](C)C(=O)N[C@H](C(=O)O)[C@@H](C)O)C(C)C [561 M]
IC50 (DR4 molecules): 400 nM | reduction of T cell proliferative response (T cell clone BRI.4-10; clone BRI.4-10, APC pre-pulsed with agonist peptide 555-567): 80% | antagonism of γIFN cytokine response (in words) (T cell clone BRI.4-10; clone BRI.4-10, APC pre-pulsed with agonist peptide 555-567, FIG. 2B): similarly antagonized | antagonism of T cell responses (proliferation and γIFN, FIGS. 2C and 2D) (T cell clone BRI.4-11; clone BRI.4-11, APC pre-pulsed with agonist peptide 555-567): more than 90%

569-585: GAD65 peptide of residues 569-585 (QDIDFLIEEIERLGQDL; UniProt Q05329 569-585, looked up, fragment)
γIFN, specific T cell response [1]: 5 pg/mL

554-566: GAD65 554-566 sequence, DR4-binding peptide of Wicker et al (VNFFRMVISNPAA; UniProt Q05329 554-566, looked up, fragment)
DR4 binding avidity among GAD65 peptides (DR4): most avid binding peptide identified
